Each molecule was assayed against T1, human cGAS (residues 161-522) (Homo sapiens, UniProt Q8N884) (assay: cGAS Activity Assay—Malachite Green). Conditions: recombinant purified human cGAS 25 nM; 80 μM ATP, 80 μM GTP, 100 nM ISD; 4 hour at RT; phosphate detection by Malachite Green.
T1 construct: human cGAS (residues 161-522); made in house
Type: biochemical
Description: Compounds were tested for cGAS inhibition in a coupled enzymatic assay based on Phosphate detection by Malachite Green. Final assay conditions were 20 mM TRIS pH 7.5 (Applichem), 5 mM MgCl2 (Sigma) and 0.01% BSA (Sigma) supplemented with 80 μM ATP (Sigma), 80 μM GTP (Sigma) and 100 nM Interferon Stimulating DNA (ISD) (Microsynth). Recombinantly expressed purified human cGAS (residues 161-522) was used at 25 nM.
All compounds were prepared as 10 mM stock solutions in DMSO and a 16 pt dilution series in DMSO with a dilution factor of 2.5 was prepared. 1 μL of DMSO dilution series was transferred to 32.3 μL reaction buffer, mixed by pipetting up/down, spun for 1 minute at 3000 rpm and was visually inspected for precipitation. 5 μL of 3-fold enzyme stock solution were transferred to an empty 384-well Black/Clear Flat Bottom Polystyrene NBS (Corning) rows 3-24. Rows 1-2 were filled with assay buffer. Plates were spun 10 seconds at 1000 rpm (164×g). 5 μL of compound intermediate dilution was added and mixed by pipetting up/down to rows 3-24. Rows 1-2 were filled with 3.1% DMSO assay buffer. Plates were spun 10 seconds at 1000 rpm (164×g). 5 μL 3-fold Nucleotide/DNA mix was added to all wells to start the reaction. Plates were spun 10 seconds at 1000 rpm (164×g) and incubated for 4 hour at room temperature (RT) in the dark. 5 μL 4 U/ml PPase (Sigma) were added to all wells. Plates spun 10 seconds at 1000 rpm (164×g). 10 μL BioMol green Solution (Enzo Life Sciences) was added to all wells. Plates spun 10 seconds at 1000 rpm (164×g) and incubated 30 minutes at RT in the dark. Absorbance data was collected 620 nm on an EnVision Multilable Reader (Perkin Elmer) and the following measurement settings were used: excitation filter photometric was 620 nm; excitation from the top; measurement height was 1 mm; number of flashes was 30; number of flashes integrated was 1.
All plates are checked for abnormalities and outliers in the Blank Control (no protein, row 1) and the Neutral Control (no compound, row 2) are excluded using the 3*SD rule. Data was normalized to 0 and 100% by Blank and Neutral Control and each curve was fitted and judged using the 4 parameter logistic equation to determine the IC50 for cGAS inhibition.
Table 13 provides IC50 values (μM) for cGAS inhibition obtained for particular examples of the present invention as measured by the above-described assay.

T1 sequence (Q8N884 161-522): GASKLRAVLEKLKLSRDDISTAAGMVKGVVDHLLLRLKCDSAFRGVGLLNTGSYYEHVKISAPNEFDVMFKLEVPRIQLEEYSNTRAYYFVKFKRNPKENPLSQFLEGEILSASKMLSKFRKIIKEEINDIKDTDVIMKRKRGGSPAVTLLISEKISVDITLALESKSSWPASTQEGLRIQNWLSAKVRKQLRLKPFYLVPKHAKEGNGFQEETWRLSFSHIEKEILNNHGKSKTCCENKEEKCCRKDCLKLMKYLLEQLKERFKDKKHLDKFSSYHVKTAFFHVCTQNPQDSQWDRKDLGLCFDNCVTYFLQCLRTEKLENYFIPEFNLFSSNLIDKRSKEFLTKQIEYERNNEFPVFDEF

Row | IC50 | Structure (SMILES)
1 | 180 nM | Cc1oncc1/C(O)=C(\C#N)C(=O)Nc1ccc(S(C)(=O)=O)cc1 [Example 115, (Z)-2-cyano-3-hydroxy-3-(5-methylisoxazol-4-yl)-N-(4-methylsulfonylphenyl) prop-2-enamide]
2 | 1290 nM | Cc1oncc1/C(O)=C(\C#N)C(=O)Nc1ccc(OC2COC2)cc1 [Example 41, (Z)-2-cyano-3-hydroxy-3-(5-methylisoxazol-4-yl)-N-[4-(oxetan-3-yloxy)phenyl]prop-2-enamide]
3 | 1480 nM | Cc1oncc1/C(O)=C(\C#N)C(=O)Nc1ccc(F)cc1 [Example 10, (Z)-2-cyano-N-(4-fluorophenyl)-3-hydroxy-3-(5-methylisoxazol-4-yl)acrylamide]
4 | 2600 nM | Cc1oncc1/C(O)=C(\C#N)C(=O)Nc1ccc(Cl)c(Cl)c1 [Example 12, (Z)-2-cyano-N-(3,4-dichlorophenyl)-3-hydroxy-3-(5-methylisoxazol-4-yl)acrylamide]
5 | 1710 nM | Cc1oncc1/C(O)=C(\C#N)C(=O)Nc1ncc(C(=O)N(C)c2ccccc2)c(CCc2ccccc2)n1 [Example 134, (Z)-2-(2-cyano-3-hydroxy-3-(5-methylisoxazol-4-yl)acrylamido)-N-methyl-4-phenethyl-N-phenylpyrimidine-5-carboxamide]
6 | 1510 nM | Cc1oncc1/C(O)=C(\C#N)C(=O)Nc1cccc(S(C)(=O)=O)c1 [Example 26, (Z)-2-cyano-3-hydroxy-3-(5-methylisoxazol-4-yl)-N-(3-(methylsulfonyl)phenyl) acrylamide]
7 | 420 nM | COc1ccc(NC(=O)/C(C#N)=C(\O)c2cnoc2C)nc1 [Example 37, (Z)-2-cyano-3-hydroxy-N-(5-methoxy-2-pyridyl)-3-(5-methylisoxazol-4-yl)prop-2-enamide]
8 | 60 nM | Cc1oncc1/C(O)=C(\C#N)C(=O)Nc1ncc(S(=O)(=O)c2ccccc2)c(-c2cccc(F)c2)n1 [Example 139, (Z)-2-cyano-N-(4-(3-fluorophenyl)-5-(phenylsulfonyl)pyrimidin-2-yl)-3-hydroxy-3-(5-methylisoxazol-4-yl)acrylamide]
9 | 3560 nM | Cc1oncc1/C(O)=C(\C#N)C(=O)Nc1ccc(Cl)c(C(F)(F)F)c1 [Example 15, (Z)-N-(4-chloro-3-(trifluoromethyl)phenyl)-2-cyano-3-hydroxy-3-(5-methylisoxazol-4-yl)acrylamide]
10 | 140 nM | Cc1oncc1/C(O)=C(\C#N)C(=O)Nc1ccc(S(=O)(=O)Nc2nccs2)cc1 [Example 40, (Z)-2-cyano-3-hydroxy-3-(5-methylisoxazol-4-yl)-N-[4-(thiazol-2-ylsulfamoyl)phenyl]prop-2-enamide]
11 | 670 nM | Cc1oncc1/C(O)=C(\C#N)C(=O)Nc1ncc(-c2ccccc2)cn1 [Example 81, (Z)-2-cyano-3-hydroxy-3-(5-methylisoxazol-4-yl)-N-(5-phenylpyrimidin-2-yl)acrylamide]
12 | 270 nM | CC(=O)Nc1ccc(NC(=O)/C(C#N)=C(\O)c2cnoc2C)cc1 [Example 42, (Z)-N-(4-acetamidophenyl)-2-cyano-3-hydroxy-3-(5-methylisoxazol-4-yl)prop-2-enamide]
13 | 2520 nM | Cc1oncc1/C(O)=C(\C#N)C(=O)Nc1ccc(C(=O)N(C)CC2CCCCC2)c(Cl)c1 [Example 77, (Z)-2-chloro-4-(2-cyano-3-hydroxy-3-(5-methylisoxazol-4-yl)acrylamido)-N-(cyclohexylmethyl)-N-methylbenzamide]
14 | 3470 nM | Cc1oncc1/C(O)=C(\C#N)C(=O)Nc1ccc(Sc2ccc(Cl)cc2)cc1 [Example 13, (Z)-N-(4-((4-chlorophenyl)thio)phenyl)-2-cyano-3-hydroxy-3-(5-methylisoxazol-4-yl)acrylamide]
15 | 300 nM | CCN(CC)C(=O)CNS(=O)(=O)c1ccc(NC(=O)/C(C#N)=C(\O)c2cnoc2C)cc1 [Example 53, (Z)-2-cyano-N-(4-(N-(2-(diethylamino)-2-oxoethyl)sulfamoyl)phenyl)-3-hydroxy-3-(5-methylisoxazol-4-yl)acrylamide]
16 | 150 nM | Cc1oncc1/C(O)=C(\C#N)C(=O)Nc1ncc(CCc2ccccc2)cn1 [Example 102, (Z)-2-cyano-3-hydroxy-3-(5-methylisoxazol-4-yl)-N-(5-phenethylpyrimidin-2-yl)acrylamide]
17 | 100 nM | CCCNS(=O)(=O)c1ccc(NC(=O)/C(C#N)=C(\O)c2cnoc2C)cc1 [Example 48, (Z)-2-cyano-3-hydroxy-3-(5-methylisoxazol-4-yl)-N-(4-(N-propylsulfamoyl)phenyl) acrylamide]
18 | 240 nM | Cc1oncc1/C(O)=C(\C#N)C(=O)Nc1ccc(C(N)=O)cc1 [Example 44, 4-[[(Z)-2-cyano-3-hydroxy-3-(5-methylisoxazol-4-yl)prop-2-enoyl]amino]benzamide]
19 | 40 nM | CCS(=O)(=O)c1cnc(NC(=O)/C(C#N)=C(\O)c2cnoc2C)nc1 [Example 103, (Z)-2-cyano-N-(5-(ethylsulfonyl)pyrimidin-2-yl)-3-hydroxy-3-(5-methylisoxazol-4-yl)acrylamide]
20 | 190 nM | Cc1oncc1/C(O)=C(\C#N)C(=O)Nc1ncc(C(=O)N(C)Cc2ccccc2)c(-c2ccccc2)n1 [Example 132, (Z)—N-Benzyl-2-(2-cyano-3-hydroxy-3-(5-methylisoxazol-4-yl)acrylamido)-N-methyl-4-phenylpyrimidine-5-carboxamide]
21 | 80 nM | COCCOc1cnc(NC(=O)/C(C#N)=C(\O)c2cnoc2C)nc1 [Example 89, (Z)-2-cyano-3-hydroxy-N-(5-(2-methoxyethoxy)pyrimidin-2-yl)-3-(5-methylisoxazol-4-yl)acrylamide]
22 | 210 nM | Cc1oncc1/C(O)=C(\C#N)C(=O)Nc1nccc(-c2ccccc2)n1 [Example 68, (Z)-2-cyano-3-hydroxy-3-(5-methylisoxazol-4-yl)-N-(4-phenylpyrimidin-2-yl)acrylamide]
23 | 2180 nM | Cc1oncc1/C(O)=C(\C#N)C(=O)Nc1ncc(CCc2ccccc2)c(C(F)(F)F)n1 [Example 131, (Z)-2-cyano-3-hydroxy-3-(5-methylisoxazol-4-yl)-N-(5-phenethyl-4-(trifluoromethyl)pyrimidin-2-yl)acrylamide]
24 | 610 nM | COc1ccc(-c2cnc(NC(=O)/C(C#N)=C(\O)c3cnoc3C)nc2)cc1 [Example 80, (Z)-2-cyano-3-hydroxy-N-(5-(4-methoxyphenyl)pyrimidin-2-yl)-3-(5-methylisoxazol-4-yl)acrylamide]
25 | 330 nM | Cc1oncc1/C(O)=C(\C#N)C(=O)Nc1ccc(S(C)(=N)=O)cc1 (stereo not shown) [Example 113, (Z)-2-Cyano-3-hydroxy-3-(5-methylisoxazol-4-yl)-N-(4-(S-methylsulfonimidoyl)phenyl)acrylamide]
26 | 1070 nM | Cc1oncc1/C(O)=C(\C#N)C(=O)Nc1ccccc1 [Example 3, (Z)-2-cyano-3-hydroxy-3-(5-methylisoxazol-4-yl)-N-phenylacrylamide]
27 | 20 nM | Cc1oncc1/C(O)=C(\C#N)C(=O)Nc1ncc(S(=O)(=O)c2ccccc2)cn1 [Example 111, (Z)-N-[5-(benzenesulfonyl)pyrimidin-2-yl]-2-cyano-3-hydroxy-3-(5-methylisoxazol-4-yl)prop-2-enamide]
28 | 120 nM | Cc1oncc1/C(O)=C(\C#N)C(=O)Nc1ccc(S(=N)(=O)c2ccccc2)cc1 (stereo not shown) [Example 114, (Z)-2-cyano-3-hydroxy-3-(5-methylisoxazol-4-yl)-N-(4-(phenylsulfonimidoyl)phenyl)acrylamide]
